Test [1] deals with JAK2 kinase activity on STAT5 in TF1 cells (Homo sapiens, UniProt O60674). Briefly: pSTAT5 cell assay (MSD; TF1 cells, 30 ng/mL IL-3 stimulation). Format: cell-based. The conditions noted are these: 30 ng/mL IL-3, 15 minutes. A digest of the protocol:
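Serum-starved TF1 cells with native JAK2/STAT5 were pretreated 1 h with compound (10-point four-fold dilutions from 10 μM), then stimulated 15 min with 30 ng/mL IL-3. pSTAT5 in lysates quantified by MSD immunoassay; normalized percent activity fitted to a 4-parameter logistic curve for IC50.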

For test [2], the target named is Tyk2 kinase activity on STAT4 in NK92 cells (Homo sapiens, UniProt P29597). Description: pSTAT4 cell assay (MSD; NK92 cells, 30 ng/mL IL2 stimulation). The test is classed as cell-based. The conditions noted are these: 30 ng/mL IL2, 15 minutes. A digest of the protocol: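 Serum-starved NK92 cells were preincubated 1 hr with compound (10-point, four-fold dilutions from 10 μM), then stimulated with 30 ng/mL IL2 for 15 minutes. Lysates were read on an MSD plate assay using anti-STAT4 antibodies, and IC50 came from a 4-parameter logistic fit of normalized percent activity.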

Test [3] concerns the target T1, human JAK2 kinase domain (JH1) (Homo sapiens, UniProt O60674).
T1 construct: recombinantly generated catalytic kinase (also known as JH1) domain of human JAK1, JAK2, JAK3 and TYK2
Description: JH1 biochemical assay for JAK2 (ADP-Glo kinase assay, recombinant JH1 catalytic domain, JAK3-974 peptide, 15 μM ATP). The conditions noted are these: JH1 kinase domain, ADP-Glo. A digest of the protocol: (§1)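 Compounds were titrated in 11 points of 3-fold dilution starting at 10 μM or 1 μM. Enzyme (JAK1 4 nM, JAK2 0.2 nM, JAK3 0.3 nM, TYK2 2 nM) and 50 μM peptide reacted for 100 minutes, followed by ADP-to-luminescence detection; IC50 by 4-parameter fit.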

Test [4] deals with T2, human TYK2 kinase domain (JH1) (Homo sapiens, UniProt P29597).
T2 construct: recombinantly generated catalytic kinase (also known as JH1) domain of human JAK1, JAK2, JAK3 and TYK2
T2 sequence (P29597 897-1176 limits assumed): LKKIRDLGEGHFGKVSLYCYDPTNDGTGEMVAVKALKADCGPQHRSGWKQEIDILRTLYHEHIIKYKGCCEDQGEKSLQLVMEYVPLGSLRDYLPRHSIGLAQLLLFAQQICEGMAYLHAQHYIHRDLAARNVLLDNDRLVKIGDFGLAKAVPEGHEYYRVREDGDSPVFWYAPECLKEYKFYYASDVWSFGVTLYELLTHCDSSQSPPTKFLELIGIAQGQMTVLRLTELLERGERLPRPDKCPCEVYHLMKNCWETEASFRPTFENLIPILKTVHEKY
Briefly: JH1 biochemical assay for TYK2 (ADP-Glo kinase assay, recombinant JH1 catalytic domain, JAK3-974 peptide, 10 μM ATP). The following applies: JH1 kinase domain, ADP-Glo. The gist of the method:
as §1

The target in test [5] is T3, human JAK3 kinase domain (JH1) (Homo sapiens, UniProt P52333).
T3 construct: recombinantly generated catalytic kinase (also known as JH1) domain of human JAK1, JAK2, JAK3 and TYK2
Description: JH1 biochemical assay for JAK3 (ADP-Glo kinase assay, recombinant JH1 catalytic domain, JAK3-974 peptide, 4 μM ATP). The following applies: JH1 kinase domain, ADP-Glo. The gist of the method: as §1

For test [6], the target named is T4, human JAK1 kinase domain (JH1) (Homo sapiens, UniProt P23458).
T4 construct: recombinantly generated catalytic kinase (also known as JH1) domain of human JAK1, JAK2, JAK3 and TYK2
Briefly: JH1 biochemical assay for JAK1 (ADP-Glo kinase assay, recombinant JH1 catalytic domain, JAK3-342 peptide, 35 μM ATP). The following applies: JH1 kinase domain, ADP-Glo. The gist of the method:
as §1

The target of test [7] is JAK1 kinase activity on STAT3 in TF1 cells (Homo sapiens, UniProt P23458). Briefly: pSTAT3 cell assay (MSD; TF1 cells, 30 ng/mL IL-6 stimulation). The test is classed as cell-based. The conditions noted are these: 30 ng/mL IL-6, 15 minutes. The gist of the method:
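Serum-starved TF1 cells with endogenous JAK1/STAT3 were pretreated 1 h with compound in a 10-point four-fold dilution series from 10 μM, then stimulated with 30 ng/mL IL-6 for 15 min. pSTAT3 in lysates was quantified by MSD immunoassay, and IC50 came from 4-parameter logistic fits.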

Counter-ions that a name gives are not always drawn.

Tyk2 kinase activity on STAT4 in NK92 cells, sequence (P29597 whole entry): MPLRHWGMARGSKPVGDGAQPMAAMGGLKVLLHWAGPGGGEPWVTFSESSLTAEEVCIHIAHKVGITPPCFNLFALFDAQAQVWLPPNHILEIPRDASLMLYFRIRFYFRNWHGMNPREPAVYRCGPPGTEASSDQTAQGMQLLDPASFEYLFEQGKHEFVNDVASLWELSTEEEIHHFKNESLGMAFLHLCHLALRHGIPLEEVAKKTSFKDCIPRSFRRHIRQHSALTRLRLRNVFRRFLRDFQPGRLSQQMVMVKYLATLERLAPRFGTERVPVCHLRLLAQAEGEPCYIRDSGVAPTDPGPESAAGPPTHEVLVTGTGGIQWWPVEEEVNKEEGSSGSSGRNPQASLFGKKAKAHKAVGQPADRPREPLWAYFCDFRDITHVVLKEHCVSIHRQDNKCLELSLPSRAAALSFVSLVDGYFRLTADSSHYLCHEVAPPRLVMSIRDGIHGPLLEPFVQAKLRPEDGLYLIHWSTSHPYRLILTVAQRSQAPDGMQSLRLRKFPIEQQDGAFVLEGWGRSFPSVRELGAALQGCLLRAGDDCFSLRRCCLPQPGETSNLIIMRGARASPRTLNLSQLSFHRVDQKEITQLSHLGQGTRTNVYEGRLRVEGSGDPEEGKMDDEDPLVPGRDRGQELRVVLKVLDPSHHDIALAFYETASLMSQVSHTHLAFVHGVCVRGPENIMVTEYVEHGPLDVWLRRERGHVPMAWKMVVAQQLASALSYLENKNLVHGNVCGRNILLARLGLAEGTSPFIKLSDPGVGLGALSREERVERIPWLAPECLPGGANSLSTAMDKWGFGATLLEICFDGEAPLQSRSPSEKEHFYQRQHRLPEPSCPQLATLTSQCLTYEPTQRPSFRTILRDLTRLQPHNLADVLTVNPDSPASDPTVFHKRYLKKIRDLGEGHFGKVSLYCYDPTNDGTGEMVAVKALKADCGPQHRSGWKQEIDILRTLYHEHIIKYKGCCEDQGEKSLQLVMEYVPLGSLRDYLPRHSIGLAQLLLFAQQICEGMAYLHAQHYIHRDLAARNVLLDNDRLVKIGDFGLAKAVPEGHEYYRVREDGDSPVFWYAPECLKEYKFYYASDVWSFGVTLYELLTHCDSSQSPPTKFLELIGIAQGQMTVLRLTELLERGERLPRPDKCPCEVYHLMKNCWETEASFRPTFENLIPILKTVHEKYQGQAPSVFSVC
T4 sequence (P23458 875-1153 limits assumed): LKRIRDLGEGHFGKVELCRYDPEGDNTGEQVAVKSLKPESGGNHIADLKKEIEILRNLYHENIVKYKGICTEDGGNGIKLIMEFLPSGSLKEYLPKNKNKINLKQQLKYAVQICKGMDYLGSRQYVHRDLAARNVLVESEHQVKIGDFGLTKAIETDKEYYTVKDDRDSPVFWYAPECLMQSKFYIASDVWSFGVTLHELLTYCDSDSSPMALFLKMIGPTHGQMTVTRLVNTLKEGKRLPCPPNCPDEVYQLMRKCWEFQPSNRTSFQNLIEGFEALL
T3 sequence (P52333 822-1111 limits assumed): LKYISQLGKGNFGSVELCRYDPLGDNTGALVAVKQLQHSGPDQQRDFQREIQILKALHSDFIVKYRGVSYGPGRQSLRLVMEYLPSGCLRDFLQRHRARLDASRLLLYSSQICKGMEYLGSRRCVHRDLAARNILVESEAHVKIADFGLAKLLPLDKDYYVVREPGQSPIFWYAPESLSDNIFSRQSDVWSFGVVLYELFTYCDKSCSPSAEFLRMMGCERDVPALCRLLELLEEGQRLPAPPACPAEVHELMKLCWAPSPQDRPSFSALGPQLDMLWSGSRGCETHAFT
JAK1 kinase activity on STAT3 in TF1 cells, sequence (P23458 whole entry): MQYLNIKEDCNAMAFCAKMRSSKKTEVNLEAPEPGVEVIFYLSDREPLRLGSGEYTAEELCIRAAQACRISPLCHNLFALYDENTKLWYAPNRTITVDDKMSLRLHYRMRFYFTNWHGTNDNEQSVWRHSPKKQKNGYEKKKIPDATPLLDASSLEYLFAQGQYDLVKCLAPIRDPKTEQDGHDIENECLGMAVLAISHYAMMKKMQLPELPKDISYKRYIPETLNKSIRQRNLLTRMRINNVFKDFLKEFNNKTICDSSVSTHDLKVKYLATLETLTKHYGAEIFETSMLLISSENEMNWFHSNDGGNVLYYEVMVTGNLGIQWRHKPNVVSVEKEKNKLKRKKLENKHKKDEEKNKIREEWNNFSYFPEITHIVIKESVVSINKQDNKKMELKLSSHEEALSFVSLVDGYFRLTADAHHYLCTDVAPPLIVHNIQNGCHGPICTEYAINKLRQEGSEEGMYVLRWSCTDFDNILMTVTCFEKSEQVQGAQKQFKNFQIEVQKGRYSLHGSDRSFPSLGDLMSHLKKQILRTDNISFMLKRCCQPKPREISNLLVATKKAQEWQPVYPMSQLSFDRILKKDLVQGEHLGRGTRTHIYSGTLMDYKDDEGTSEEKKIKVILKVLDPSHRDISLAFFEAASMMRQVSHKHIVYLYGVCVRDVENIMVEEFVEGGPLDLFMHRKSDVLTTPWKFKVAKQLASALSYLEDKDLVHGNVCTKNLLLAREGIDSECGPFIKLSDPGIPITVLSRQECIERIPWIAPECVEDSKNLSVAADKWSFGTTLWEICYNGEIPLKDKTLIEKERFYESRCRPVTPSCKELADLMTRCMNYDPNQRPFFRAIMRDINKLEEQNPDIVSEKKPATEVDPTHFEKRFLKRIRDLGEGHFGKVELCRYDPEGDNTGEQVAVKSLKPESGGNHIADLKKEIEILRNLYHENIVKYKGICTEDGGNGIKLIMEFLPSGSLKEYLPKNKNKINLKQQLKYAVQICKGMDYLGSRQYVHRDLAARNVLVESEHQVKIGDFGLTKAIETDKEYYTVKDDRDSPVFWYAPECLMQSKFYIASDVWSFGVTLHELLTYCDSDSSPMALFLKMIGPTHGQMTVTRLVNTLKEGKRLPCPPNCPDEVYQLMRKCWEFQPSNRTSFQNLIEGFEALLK
JAK2 kinase activity on STAT5 in TF1 cells, sequence (O60674 whole entry): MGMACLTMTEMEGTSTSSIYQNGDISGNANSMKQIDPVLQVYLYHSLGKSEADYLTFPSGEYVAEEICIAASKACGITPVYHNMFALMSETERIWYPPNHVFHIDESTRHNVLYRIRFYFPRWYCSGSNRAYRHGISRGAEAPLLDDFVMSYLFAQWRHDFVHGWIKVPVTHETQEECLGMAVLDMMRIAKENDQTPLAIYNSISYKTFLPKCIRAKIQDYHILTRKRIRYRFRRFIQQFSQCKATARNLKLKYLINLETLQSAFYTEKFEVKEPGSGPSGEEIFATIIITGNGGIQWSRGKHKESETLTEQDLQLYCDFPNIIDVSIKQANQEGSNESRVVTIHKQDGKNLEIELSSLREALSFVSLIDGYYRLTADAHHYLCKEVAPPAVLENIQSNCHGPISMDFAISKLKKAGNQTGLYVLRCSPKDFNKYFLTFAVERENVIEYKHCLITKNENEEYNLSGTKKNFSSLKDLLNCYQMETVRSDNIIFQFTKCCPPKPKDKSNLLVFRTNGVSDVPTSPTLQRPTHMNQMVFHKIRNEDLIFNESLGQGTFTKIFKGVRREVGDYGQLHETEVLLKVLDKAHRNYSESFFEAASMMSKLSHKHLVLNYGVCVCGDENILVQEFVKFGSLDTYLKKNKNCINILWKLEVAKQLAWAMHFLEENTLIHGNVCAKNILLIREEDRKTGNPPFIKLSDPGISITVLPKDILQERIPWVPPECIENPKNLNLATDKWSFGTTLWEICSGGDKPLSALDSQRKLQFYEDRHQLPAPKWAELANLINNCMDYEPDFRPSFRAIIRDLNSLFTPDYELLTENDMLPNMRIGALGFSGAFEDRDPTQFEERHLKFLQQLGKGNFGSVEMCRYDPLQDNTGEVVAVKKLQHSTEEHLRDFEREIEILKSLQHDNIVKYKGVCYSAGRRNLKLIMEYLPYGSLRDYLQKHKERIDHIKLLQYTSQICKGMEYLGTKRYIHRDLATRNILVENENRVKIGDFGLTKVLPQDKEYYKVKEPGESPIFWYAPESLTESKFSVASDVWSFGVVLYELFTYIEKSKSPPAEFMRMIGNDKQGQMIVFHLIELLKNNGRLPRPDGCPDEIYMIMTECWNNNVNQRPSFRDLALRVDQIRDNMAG
T1 sequence (O60674 849-1124 limits assumed): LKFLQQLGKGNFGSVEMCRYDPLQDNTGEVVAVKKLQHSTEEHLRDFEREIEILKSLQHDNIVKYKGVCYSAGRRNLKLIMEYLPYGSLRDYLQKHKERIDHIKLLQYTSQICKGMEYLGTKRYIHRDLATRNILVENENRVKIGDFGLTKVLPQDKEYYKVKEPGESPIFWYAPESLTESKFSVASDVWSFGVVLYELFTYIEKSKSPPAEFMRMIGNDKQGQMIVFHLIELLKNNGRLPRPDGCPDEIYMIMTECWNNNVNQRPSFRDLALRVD

In the case of `C[C@@H]1CN(c2ccnn3cc(-c4cnc5[nH]ccc5c4)cc23)C(=O)[C@]1(C#N)C1CC1` [Example 64, (3R,4S)-1-(6-(1H-pyrrolo[2,3-b]pyridin-5-yl)pyrrolo[1,2-b]pyridazin-4-yl)-3-cyclopropyl-4-methyl-2-oxopyrrolidine-3-carbonitrile], the IC50 in test [1] was 5000 to 10000 nM; in test [2], 50 to 100 nM; in test [3] it was 100 to 1000 nM; in test [4], 5 to 20 nM; in test [5] it was 100 to 1000 nM; in test [6] it was 100 to 1000 nM. The same compound gave an IC50 in test [7] of 1000 to 5000 nM.
For `COc1cc(-c2cc3c(N4C[C@@H](C)[C@@](C#N)(C5CC5)C4=O)ccnn3c2)ccn1` [Example 65, (3R,4S)-3-cyclopropyl-1-(6-(2-methoxypyridin-4-yl)pyrrolo[1,2-b]pyridazin-4-yl)-4-methyl-2-oxopyrrolidine-3-carbonitrile], the IC50 was over 10000 nM in test [1]; 50 to 100 nM in test [2]; 100 to 1000 nM in test [3]; 5 to 20 nM in test [4]; 100 to 1000 nM in test [5]; 100 to 1000 nM in test [6]. Moreover, the IC50 in test [7] is 1000 to 5000 nM.
For `C[C@@H]1CN(c2ccnn3cc(-c4cc[nH]n4)cc23)C(=O)[C@]1(C#N)C1CC1` [Example 66, (3R,4S)-1-(6-(1H-pyrazol-3-yl)pyrrolo[1,2-b]pyridazin-4-yl)-3-cyclopropyl-4-methyl-2-oxopyrrolidine-3-carbonitrile trifluoroacetate], the IC50 in test [1] was over 10000 nM; in test [2] it was over 100 nM; in test [3] it was 100 to 1000 nM; in test [4], 5 to 20 nM; in test [5] it was 100 to 1000 nM; in test [6], 100 to 1000 nM. Also, the IC50 in test [7] lay in the range of 5000 to 10000 nM.
As to `Cc1ccc(-c2cc3c(N4C[C@@H](C)[C@@](C#N)(C5CC5)C4=O)ccnn3c2)cn1` [Example 67, (3R,4S)-3-cyclopropyl-4-methyl-1-(6-(6-methylpyridin-3-yl)pyrrolo[1,2-b]pyridazin-4-yl)-2-oxopyrrolidine-3-carbonitrile], the IC50 is 5000 to 10000 nM in test [1]; over 100 nM in test [2]; 100 to 1000 nM in test [3]; 5 to 20 nM in test [4]; 100 to 1000 nM in test [5]; 100 to 1000 nM in test [6]. The compound also showed an IC50 in test [7] of 1000 to 5000 nM.
As for `C[C@@H]1CN(c2ccnn3cc(-c4ccc5cnn(C)c5c4)cc23)C(=O)[C@]1(C#N)C1CC1` [Example 68, (3R,4S)-3-cyclopropyl-4-methyl-1-(6-(1-methyl-1H-indazol-6-yl)pyrrolo[1,2-b]pyridazin-4-yl)-2-oxopyrrolidine-3-carbonitrile], the IC50 was 5000 to 10000 nM in test [1]; 50 to 100 nM in test [2]; 100 to 1000 nM in test [3]; 5 to 20 nM in test [4]; 100 to 1000 nM in test [5]; under 100 nM in test [6]. Further, in test [7], the IC50 lay within 100 to 1000 nM.
For `C[C@@H]1CN(c2ccnn3cc(-c4ccnc(C(F)(F)F)c4)cc23)C(=O)[C@]1(C#N)C1CC1` [Example 69, (3R,4S)-3-cyclopropyl-4-methyl-2-oxo-1-(6-(2-(trifluoromethyl)pyridin-4-yl)pyrrolo[1,2-b]pyridazin-4-yl)pyrrolidine-3-carbonitrile], the IC50 was over 10000 nM in test [1]; over 100 nM in test [2]; 1000 to 5000 nM in test [3]; 5 to 20 nM in test [4]; 100 to 1000 nM in test [5]; 100 to 1000 nM in test [6]. Further, the IC50 in test [7] lay in the range of 5000 to 10000 nM.
As to `Cc1cncc(-c2cc3c(N4C[C@@H](C)[C@@](C#N)(C5CC5)C4=O)ccnn3c2)c1` [Example 71, (3R,4S)-3-cyclopropyl-4-methyl-1-(6-(5-methylpyridin-3-yl)pyrrolo[1,2-b]pyridazin-4-yl)-2-oxopyrrolidine-3-carbonitrile], the IC50 in test [1] is over 10000 nM; in test [2] it was over 100 nM; in test [3], 100 to 1000 nM; in test [4] it was 5 to 20 nM; in test [5], 100 to 1000 nM; in test [6] it was 100 to 1000 nM. The compound also had an IC50 in test [7] of 1000 to 5000 nM.
As to `C[C@@H]1CN(c2ccnn3cc(-c4c[nH]c5ncccc45)cc23)C(=O)[C@]1(C#N)C1CC1` [Example 72, (3R,4S)-1-(6-(1H-pyrrolo[2,3-b]pyridin-3-yl)pyrrolo[1,2-b]pyridazin-4-yl)-3-cyclopropyl-4-methyl-2-oxopyrrolidine-3-carbonitrile], the IC50 in test [1] was 5000 to 10000 nM; in test [2], over 100 nM; in test [3] it was 100 to 1000 nM; in test [4] it was 5 to 20 nM; in test [5], 100 to 1000 nM; in test [6], 100 to 1000 nM. This compound also yielded an IC50 in test [7] of 1000 to 5000 nM.
On to `C[C@@H]1CN(c2ccnn3cc(-c4ccnc(F)c4)cc23)C(=O)[C@]1(C#N)C1CC1` [Example 73, (3R,4S)-3-cyclopropyl-1-(6-(2-fluoropyridin-4-yl)pyrrolo[1,2-b]pyridazin-4-yl)-4-methyl-2-oxopyrrolidine-3-carbonitrile], for which the IC50 in test [1] was over 10000 nM; in test [2], over 100 nM; in test [3] it was 100 to 1000 nM; in test [4] it was 5 to 20 nM; in test [5], 100 to 1000 nM; in test [6], 100 to 1000 nM. In addition, the IC50 in test [7] lay within 1000 to 5000 nM.
As for `C[C@@H]1CN(c2ccnn3cc(-c4ccc(C(F)(F)F)nc4)cc23)C(=O)[C@]1(C#N)C1CC1` [Example 74, (3R,4S)-3-cyclopropyl-4-methyl-2-oxo-1-(6-(6-(trifluoromethyl)pyridin-3-yl)pyrrolo[1,2-b]pyridazin-4-yl)pyrrolidine-3-carbonitrile], the IC50 is over 10000 nM in test [1]; over 100 nM in test [2]; 1000 to 5000 nM in test [3]; 5 to 20 nM in test [4]; 100 to 1000 nM in test [5]; 100 to 1000 nM in test [6]. The IC50 in test [7] is 5000 to 10000 nM.
Regarding `C[C@@H]1CN(c2ccnn3cc(-c4cnc5[nH]ncc5c4)cc23)C(=O)[C@]1(C#N)C1CC1` [Example 75, (3R,4S)-1-(6-(1H-pyrazolo[3,4-b]pyridin-5-yl)pyrrolo[1,2-b]pyridazin-4-yl)-3-cyclopropyl-4-methyl-2-oxopyrrolidine-3-carbonitrile], the IC50 is over 10000 nM in test [1]; 50 to 100 nM in test [2]; 100 to 1000 nM in test [3]; under 5 nM in test [4]; 100 to 1000 nM in test [5]; under 100 nM in test [6]. The IC50 in test [7] was 1000 to 5000 nM.
For `Cc1cc(-c2cc3c(N4C[C@@H](C)[C@@](C#N)(C5CC5)C4=O)ccnn3c2)ccn1` [Example 77, (3R,4S)-3-cyclopropyl-4-methyl-1-(6-(2-methylpyridin-4-yl)pyrrolo[1,2-b]pyridazin-4-yl)-2-oxopyrrolidine-3-carbonitrile], the 50% inhibitory concentration (IC50) in test [1] is 1000 to 5000 nM; in test [2] it was 50 to 100 nM; in test [3], 100 to 1000 nM; in test [4], under 5 nM; in test [5], 100 to 1000 nM; in test [6] it was under 100 nM. For the same compound, the IC50 in test [7] is 100 to 1000 nM.
On to `C[C@@H]1CN(c2ccnn3cc(-c4ccn(C)c(=O)c4)cc23)C(=O)[C@]1(C#N)C1CC1` [Example 79, (3R,4S)-3-cyclopropyl-4-methyl-1-(6-(1-methyl-2-oxo-1,2-dihydropyridin-4-yl)pyrrolo[1,2-b]pyridazin-4-yl)-2-oxopyrrolidine-3-carbonitrile], for which the IC50 in test [1] is over 10000 nM; in test [2], over 100 nM; in test [3] it was 100 to 1000 nM; in test [4], 5 to 20 nM; in test [5], 100 to 1000 nM; in test [6], 100 to 1000 nM. Further, the IC50 in test [7] was over 10000 nM.
In the case of `C[C@@H]1CN(c2ccnn3cc(-c4ccc(F)nc4)cc23)C(=O)[C@]1(C#N)C1CC1` [Example 81, (3R,4S)-3-cyclopropyl-1-(6-(6-fluoropyridin-3-yl)pyrrolo[1,2-b]pyridazin-4-yl)-4-methyl-2-oxopyrrolidine-3-carbonitrile], the IC50 in test [1] was over 10000 nM; in test [2] it was over 100 nM; in test [3], 100 to 1000 nM; in test [4] it was 5 to 20 nM; in test [5] it was 100 to 1000 nM; in test [6], 100 to 1000 nM. The compound further came in with an IC50 in test [7] of 5000 to 10000 nM.
